Test results reported in patent US10494334B2, “Compounds to inhibit calcium/calmodulin dependent protein kinase II and applications thereof” (priority 2018, dated 2019).

Assays:
DENV-2 NGC-N strain = assay: Animal study, DENV-2-infected Stat1-deficient mice; assay type: in vivo; conditions: for overall survival: 6-day treatment
Experimental: (§1) The mouse experiments were approved by the Academia Sinica Institutional Animal Care and Use Committee and performed in accordance with the guidelines. Infection was performed in mice under isoflurane anesthesia to minimize animal suffering. The DENV-2 New Guinea C strain serially passaged in mouse brain (NGC-N), kindly provided by Dr. Ching-Juh Lai (National Institutes of Health, USA) and ZIKV PRVABC59 strain were used in the animal study. Groups of 6-week-old Stat1^−/− mice were intravenously infected in the tail with 1×10^5 PFU of DENV-2 per mouse or subcutaneously infected in the footpad with 5×10^4 PFU of ZIKV per mouse. […] The mice were checked daily for severe symptoms including limb paralysis. Euthanasia of mice with severe limb paralysis was performed as the endpoint of animal survival. Mice survival was presented as percentage of survival. Mouse serum samples were collected on day 3 after infection by phlebotomy from facial vein, and the virus load was determined by plaque-forming assay.
(§2) Data are presented as mean±standard deviation and were compared by ANOVA and Bonferroni post-hoc test unless otherwise specified. Statistical significance was set at P values of <0.05 or <0.01. A survival curve was descriptively analyzed by use of SigmaPlot v10.0 (Systat software). The median survival time (T50) and P values, based on log-rank test, were determined by use of Prism v5.0 (GraphPad software). For Western blotting, the band intensity was quantified by use of ImageJ software (National Institutes of Health).

DENV-2 PL046 strain = assay: Antiviral assay, wild type DENV-2 in BE(2)C cells (IFA, Western blotting, plaque-forming assay); assay type: cell-based, type 2 dengue virus; conditions: three hours of treatment during viral adsorption (0-3 hpi), MOI 1, Western blot
DENV-2 = assay: Virus binding/entry assays, DENV-2 on BE(2)C cells; assay type: cell-based, type 2 dengue virus
ZIKV PRVABC59 strain = assay: Animal study, ZIKV-infected Stat1-deficient mice; assay type: in vivo; conditions: for median survival time (T50): 8 mg/kg of body weight/day oral
Experimental: as §1, §2

[1] = test system: DENV-2-eGFP reporter virus; assay: Cell-based anti-DENV-2 screening with DENV-2-eGFP reporter virus in BE(2)C cells; design: species or system type 2 dengue virus; conditions: Dengue virus, DENV2, BE(2)-C, 24 h, read-out: DENV-2 infection %
ZIKV = assay: Virus binding/entry assays, ZIKV on BE(2)C cells
Experimental: For the virus entry assay, BE(2)C cells were first adsorbed with DENV-2 or ZIKV at 4° C. for 90 minutes. […] Thereafter, the cells were treated with an acidic glycine solution (0.1 M, pH=3) for 5 minutes to inactivate non-internalized virus and washed with cold Hank's balanced salt solution (HBSS). The cells were harvested with cell scrapers, and the adsorbed viruses were released by passing the cells through a 27-G needle 7 times. Cell lysates were centrifuged at 12,000 rpm for 1 minute, and the supernatant was used for plaque-forming assay to determine the level of virus binding and/or entry.

purified human CaMKII = biological target: T1, purified human CaMKII (Homo sapiens, UniProt Q9UQM7); assay: CaMKII biochemical assay (CycLex CaM kinase II Assay Kit); conditions: syntide-2 substrate, Ca2+, calmodulin, Mg2+, ATP; normalized to solvent control
T1 construct: MBL Internationl Corp (assay kit)
T1 sequence (Q9UQM7 with tags, fused parts or gaps): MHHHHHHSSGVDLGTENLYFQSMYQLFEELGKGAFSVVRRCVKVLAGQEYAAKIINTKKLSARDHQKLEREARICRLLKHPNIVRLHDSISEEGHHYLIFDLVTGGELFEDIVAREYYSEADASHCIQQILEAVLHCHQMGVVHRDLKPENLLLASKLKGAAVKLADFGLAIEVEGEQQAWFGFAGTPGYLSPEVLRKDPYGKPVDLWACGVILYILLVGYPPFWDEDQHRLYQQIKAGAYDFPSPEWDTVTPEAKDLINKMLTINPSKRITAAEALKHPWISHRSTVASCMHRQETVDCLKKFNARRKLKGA
Experimental: A commercial CaMKII inhibitor, KN-62 (Selleckchem, S7422) was used as a positive control. Kinase reaction buffer without Ca^2+ was used as a negative control. The assay wells of the microtiter plate were then incubated with HRP-conjugated-anti-phospho-syntide-2 antibody, followed by addition of syntide-2. The phosphorylation reaction was stopped after incubation at room temperature for 15 minutes. Sample absorbance at 450 nm was determined by use of an ELISA reader (Molecular Devices). Data was normalized to solvent control and presented as a percentage.

BE(2)C cells = assay: XTT cell proliferation assay; assay type: cell-based; conditions: Homo sapiens, 6.25 μM compound, compared to solvent control
Experimental: The cytotoxicity of candidate compounds to BE(2)C cells was evaluated by use of the cytotoxicity detection kit (LDH) (Roche), cell proliferation kit (XTT) (Roche), and Trypan blue cell counting assay. Briefly, cells were treated overnight with the candidate compounds at the indicated doses and subjected to the three assays. For LDH and XTT assays, light absorbance of the sample at 490 nm was determined by using an enzyme-linked immunosorbent assay (ELISA) reader (Molecular Devices). For Trypan blue cell counting assay, the number of viable cells was determined by use of haemocytometer. Data was normalized to solvent control and presented as a percentage.

[2] = 8-hours-delay treatment, 4 mg/kg of body weight/day oral
[3] = immediate treatment, 2 mg/kg of body weight/day oral
[4] = immediate treatment, 4 mg/kg of body weight/day oral
[5] = serum on day 3 after infection, plaque-forming assay, dose-dependent
[6] = 37° C. for 60 minutes after adsorption, dose-dependent
[7] = adsorption at 4° C. for 90 minutes

Compound	activity at 3.125 µM [1] [%]	viability at 6.25 µM (BE(2)C cells) [%]	melting point [°C]	other results
COc1ccc(S(=O)(=O)N(CCCC(=O)C2CCCCCC2)c2ccccc2)cc1 [Compound 9, N-(4-cycloheptyl-4-oxobutyl)-4-methoxy-N-phenylbenzenesulfonamide]	9.6	–	–	median survival time (T50) (DENV-2 NGC-N strain; 8-hours-delay treatment, 2 mg/kg of body weight/day oral): 14 days; median survival time (T50) (DENV-2 NGC-N strain; [2]): 22 days; mice protected from mortality (DENV-2 NGC-N strain; [2]): 40%; median survival time (T50) (DENV-2 NGC-N strain; [3]): 15 days; overall animal survival (DENV-2 NGC-N strain; [3]): minor effect; overall survival (DENV-2 NGC-N strain; [4]): 60%; overall survival (DENV-2 NGC-N strain; immediate treatment, 8 mg/kg of body weight/day oral): 60%; viral load (DENV-2 NGC-N strain; [5]): significantly reduced; viral-NS3 expression (DENV-2 PL046 strain): dose-dependently reduced; level of DENV-2 entry (DENV-2; [6]): significantly reduced; DENV-2 binding to cells (DENV-2; [7]): no effect; overall survival (ZIKV PRVABC59 strain; 8-hours-delay treatment): minor effect; median survival time (T50) (ZIKV PRVABC59 strain; 8-hours-delay treatment): 10 days; overall survival (ZIKV PRVABC59 strain; [4]): did not improve; median survival time (T50) (ZIKV PRVABC59 strain; immediate treatment): 11 days; viral load (ZIKV PRVABC59 strain; [5]): significantly reduced; level of ZIKV entry (ZIKV; [6]): significantly reduced; level of ZIKV binding/entry (ZIKV; MOI 10, 90 minutes at room temperature): significantly reduced; ZIKV binding to cells (ZIKV; [7]): no effect
COc1ccc(S(=O)(=O)N(CCCC(=O)C2CCC2)c2ccccc2)cc1 [Compound 7, N-(4-cyclobutyl-4-oxobutyl)-4-methoxy-N-phenylbenzenesulfonamide]	33	93.9	–	IC50 (purified human CaMKII): ~600 nM
COc1ccc(S(=O)(=O)N(CCCC(=O)C2CCCCCC2)c2ccc3c(c2)CCCC3)cc1 [Compound 15, N-(4-cycloheptyl-4-oxobutyl)-4-methoxy-N-(5,6,7,8-tetrahydronaphthalen-2-yl)-benzenesulfonamide]	21.5	104	111 to 112	–
COc1ccc(S(=O)(=O)N(CCCC(=O)C2C3CC4CC(C3)CC2C4)c2ccccc2)cc1 (centres unmarked) [Compound 10, N-(4-(adamantan-2-yl)-4-oxobutyl)-4-methoxy-N-phenylbenzenesulfonamide]	51.1	96.7	117 to 118	–
COc1ccc(S(=O)(=O)N(CCCC(=O)C2CCCC2)c2ccccc2)cc1 [Compound 8, N-(4-cyclopentyl-4-oxobutyl)-4-methoxy-N-phenylbenzenesulfonamide]	25.1	–	89 to 90	–
O=C(CCCN(c1ccccc1)S(=O)(=O)c1ccc(OC(F)(F)F)cc1)C1CCCC1 [Compound 11, N-(4-cyclopentyl-4-oxobutyl)-N-phenyl-4-(trifluoromethoxy)benzenesulfonamide]	118	92.4	69 to 70	–
COc1ccc(S(=O)(=O)NCCCC(=O)c2ccc(F)cc2)cc1 [Compound 3]	–	–	84 to 85	–
COc1ccc(S(=O)(=O)N(CCCC(=O)c2ccc(F)cc2)c2ccccc2)cc1 [Compound 1, N-(4-(4-fluorophenyl)-4-oxobutyl)-4-methoxy-N-phenylbenzenesulfonamide]	39.3	56.1	93 to 94	–
COc1ccc(S(=O)(=O)N(CCCC(=O)C2CCCCC2)c2ccccc2)cc1 [Compound 6, N-(4-cyclohexyl-4-oxobutyl)-4-methoxy-N-phenylbenzenesulfonamide]	63.3	107	81 to 82	–
COc1ccc(S(=O)(=O)N(CCCC(O)c2ccc(F)cc2)c2ccccc2)cc1 (centres unmarked) [Compound 2, N-(4-(4-fluorophenyl)-4-hydroxybutyl)-4-methoxy-N-phenylbenzenesulfonamide]	48.5	76.3	–	–
COc1ccc(S(=O)(=O)N(CCCC(=O)C2CCCCCC2)c2ccc(C3CCCCC3)cc2)cc1 [Compound 16, N-(4-cycloheptyl-4-oxobutyl)-N-(4-cyclohexylphenyl)-4-methoxybenzenesulfonamide]	13.8	–	103 to 104	–
COc1ccc(S(=O)(=O)N(C)CCCC(=O)c2ccc(F)cc2)cc1 [Compound 4, N-(4-(4-fluorophenyl)-4-oxobutyl)-4-methoxy-N-methylbenzenesulfonamide]	101	106	89 to 90	–
Cc1ccc(S(=O)(=O)N(CCCC(=O)C2CCCCCC2)c2ccccc2)cc1 [Compound 13, N-(4-cycloheptyl-4-oxobutyl)-4-methyl-N-phenylbenzenesulfonamide]	76.9	99.5	–	–
CN([C@@H](Cc1ccc(OS(=O)(=O)c2cccc3cnccc23)cc1)C(=O)N1CCN(c2ccccc2)CC1)S(=O)(=O)c1cccc2cnccc12 [KN-62, reference compound]	–	–	–	IC50 (purified human CaMKII): ~1030 nM
COc1ccc(S(=O)(=O)N(CCCC(=O)C2CCCCCC2)C2CCCCC2)cc1 [Compound 14, N-(4-cycloheptyl-4-oxobutyl)-N-cyclohexyl-4-methoxybenzenesulfonamide]	65.7	97.5	–	–
COc1ccc(S(=O)(=O)N(CCCC(C)=O)c2ccccc2)cc1 [Compound 5, 4-methoxy-N-(4-oxopentyl)-N-phenylbenzenesulfonamide]	101	106	81 to 82	–
O=C(CCCN(c1ccccc1)S(=O)(=O)c1ccc(Oc2ccccc2)cc1)C1CCCCCC1 [Compound 12, N-(4-cycloheptyl-4-oxobutyl)-4-phenoxy-N-phenylbenzenesulfonamide]	73.4	95.5	127 to 128	–
